Test results taken from ChEMBL document CHEMBL1122893, “Bile acids with cyclopropane-containing side chain. 2. Synthesis and properties of 3 alpha,7 beta-dihydroxy-22,23-methylene-5 beta-cholan-24-oic acid (2-sulfoethyl)amide” (J Med Chem, 1985).

Assay: Evaluated for critical micellular concentration (CMC) by dye solubilization method

Row | SMILES | CMC [mM]
1 | CC(C1CC1C(=O)NCCS(=O)(=O)O)C1CC[C@H]2[C@@H]3[C@@H](O)CC4C[C@H](O)CCC4(C)[C@H]3CCC12C (stereo partly drawn) | 14.5
2 | CC(CCC(=O)NCCS(=O)(=O)O)C1CC[C@H]2[C@@H]3[C@@H](O)CC4C[C@H](O)CCC4(C)[C@H]3CCC12C (stereo partly drawn) | 18
3 | CC(C1CC1C(=O)O)C1CC[C@H]2[C@@H]3[C@@H](O)CC4C[C@H](O)CCC4(C)[C@H]3CCC12C (stereo partly drawn) | 15.5
